{"source": "patent US10822334B2", "about": "“ErbB receptor inhibitors” (Dizal (Jiangsu) Pharmaceutical Co., Ltd., priority 2018, dated 2020)", "assay_type_in_all_cases": "cell-based", "key": {"WT EGFR": {"target": "WT EGFR (Homo sapiens (Human), UniProt P00533)", "sequence (P00533 25-1210)": "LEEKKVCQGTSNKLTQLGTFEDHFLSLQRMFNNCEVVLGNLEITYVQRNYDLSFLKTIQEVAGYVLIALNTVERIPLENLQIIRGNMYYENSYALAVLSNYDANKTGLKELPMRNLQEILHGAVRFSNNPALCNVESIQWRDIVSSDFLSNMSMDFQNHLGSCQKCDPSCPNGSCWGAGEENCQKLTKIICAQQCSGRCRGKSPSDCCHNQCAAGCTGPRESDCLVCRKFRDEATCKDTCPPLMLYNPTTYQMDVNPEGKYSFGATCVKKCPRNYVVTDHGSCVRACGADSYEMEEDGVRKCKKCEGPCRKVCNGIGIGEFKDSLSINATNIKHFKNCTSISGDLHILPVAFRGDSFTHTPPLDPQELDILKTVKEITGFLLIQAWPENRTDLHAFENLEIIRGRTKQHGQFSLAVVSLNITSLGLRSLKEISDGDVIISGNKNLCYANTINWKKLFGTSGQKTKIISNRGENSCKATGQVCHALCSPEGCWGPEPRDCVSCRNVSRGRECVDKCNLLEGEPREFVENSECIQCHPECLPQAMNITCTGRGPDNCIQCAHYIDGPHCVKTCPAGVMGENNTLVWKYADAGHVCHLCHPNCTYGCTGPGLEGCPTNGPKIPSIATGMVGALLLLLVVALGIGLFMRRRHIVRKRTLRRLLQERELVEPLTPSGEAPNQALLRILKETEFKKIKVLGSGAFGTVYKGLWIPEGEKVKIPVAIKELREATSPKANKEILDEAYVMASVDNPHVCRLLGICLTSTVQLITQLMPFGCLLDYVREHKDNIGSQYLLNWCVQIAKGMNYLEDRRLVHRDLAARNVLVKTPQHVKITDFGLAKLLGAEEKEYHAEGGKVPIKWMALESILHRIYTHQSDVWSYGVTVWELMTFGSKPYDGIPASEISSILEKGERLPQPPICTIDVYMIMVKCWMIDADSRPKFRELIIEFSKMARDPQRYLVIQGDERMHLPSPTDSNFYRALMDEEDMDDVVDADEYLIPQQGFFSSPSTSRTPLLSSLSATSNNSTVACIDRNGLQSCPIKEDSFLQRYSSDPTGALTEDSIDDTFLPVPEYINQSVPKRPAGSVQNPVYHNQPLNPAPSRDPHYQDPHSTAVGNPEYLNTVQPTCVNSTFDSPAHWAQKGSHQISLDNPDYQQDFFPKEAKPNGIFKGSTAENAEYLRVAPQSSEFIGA", "test": "EGFR (Y1068) phosphorylation in NCI-H838 cells (MSD)", "details": "p-EGFR (Y1068)/total EGFR, 4 h, hEGF stimulation"}, "WT HER2": {"target": "WT HER2 (Homo sapiens (Human), UniProt P04626)", "sequence (P04626 23-1255)": "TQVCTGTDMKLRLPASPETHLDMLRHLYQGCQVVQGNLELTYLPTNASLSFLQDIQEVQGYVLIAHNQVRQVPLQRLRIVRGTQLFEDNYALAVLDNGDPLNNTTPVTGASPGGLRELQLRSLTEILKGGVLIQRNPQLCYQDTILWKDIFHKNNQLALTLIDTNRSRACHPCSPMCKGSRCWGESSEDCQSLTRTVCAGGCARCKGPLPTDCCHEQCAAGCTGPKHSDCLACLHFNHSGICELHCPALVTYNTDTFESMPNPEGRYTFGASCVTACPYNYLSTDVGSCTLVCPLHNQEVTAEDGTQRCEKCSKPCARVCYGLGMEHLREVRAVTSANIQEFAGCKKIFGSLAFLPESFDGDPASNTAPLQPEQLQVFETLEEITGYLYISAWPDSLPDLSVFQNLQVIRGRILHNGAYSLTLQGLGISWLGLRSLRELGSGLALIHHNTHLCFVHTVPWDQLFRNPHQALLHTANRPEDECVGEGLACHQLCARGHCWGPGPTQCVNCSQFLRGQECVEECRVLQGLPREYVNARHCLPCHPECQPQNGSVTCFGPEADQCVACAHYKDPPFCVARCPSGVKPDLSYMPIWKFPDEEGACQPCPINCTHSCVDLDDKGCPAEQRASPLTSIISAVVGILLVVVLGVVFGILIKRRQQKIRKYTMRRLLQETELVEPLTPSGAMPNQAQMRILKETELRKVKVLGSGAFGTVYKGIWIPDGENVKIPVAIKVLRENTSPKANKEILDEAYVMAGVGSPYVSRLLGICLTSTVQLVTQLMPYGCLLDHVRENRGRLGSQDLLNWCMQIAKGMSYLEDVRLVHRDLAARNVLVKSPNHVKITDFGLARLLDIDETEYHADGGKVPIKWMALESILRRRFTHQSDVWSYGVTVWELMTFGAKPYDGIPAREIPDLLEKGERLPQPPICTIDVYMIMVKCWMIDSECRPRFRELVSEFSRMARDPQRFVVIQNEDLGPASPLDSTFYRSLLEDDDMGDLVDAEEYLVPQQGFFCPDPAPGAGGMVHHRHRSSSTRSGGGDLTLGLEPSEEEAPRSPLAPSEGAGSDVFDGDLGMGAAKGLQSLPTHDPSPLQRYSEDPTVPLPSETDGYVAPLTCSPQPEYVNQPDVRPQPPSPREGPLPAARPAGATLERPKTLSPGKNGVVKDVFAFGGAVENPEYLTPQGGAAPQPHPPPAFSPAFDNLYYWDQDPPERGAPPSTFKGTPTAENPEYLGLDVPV", "test": "HER2 (Y1248) phosphorylation in BT474 cells (MSD)", "details": "p-HER2 (Y1248)/total HER2, 4 h, read-out: HER2 WT Amplification BT474 IC50", "protocol": "The plates were incubated for 4 h at 37° C. with 5% CO2 and then the HER2 (Y1248) phosphorylation level of cells in each well were measured with MSD Kit (Phospho-ErbB2 ([…]) Assay Whole Cell Lysate Kit: Cat # […]-3). The assay is a electrochemiluminescent method (MESO SCALE DISCOVERY) for determining both phosphorylated and total HER2 of cells with an MSD SECTOR® Imager and then the ratio of p-HER2/total HER2 can be generated by the machine."}, "BT474 cells": {"tested_on": "BT474 cells", "test": "BT474 anti-proliferation assay (MTS)", "details": "Homo sapiens, BT-474; BT474 cells, 72 h, MTS; read-out: HER2 WT Amplification BT474 GI50", "protocol": "A compound's activity of selective inhibition for HER2 wild type amplification can be evaluated with BT474 cell line (ATCC® HTB-20™). The cell line expressed phosphorylated HER2 protein and its proliferation depended on the amplified gene, which could be used for in vitro PD and anti-proliferation assays.\nThe anti-proliferation activity of compounds were determined as following procedure: The BT474 cells were sorted in 384 well plates with the DMEM medium containing 10% FBS and […] overnight and then dosed with tested compounds at a series of concentrations (30 μM, 10 μM, 3 μM, 0.3 μM, 0.1 μM, 0.03 μM, 0.01 μM, 0.001 μM) on next day. Meanwhile, another cells plate was prepared for measuring GO value on next day. The dosed plates were incubate for 72h at 37° C. with 5% CO2 and the number of viable cells in each well of GO or dosed plates were measured by MTS (CellTiter 96® AQueous One Solution Cell Proliferation Assay, Promega) endpoint. This assay is a colorimetric method for determining the number viable cells in the proliferation assay. Detection reagents (5 μl) was dispensed into per well, and the plates were incubated for 2 hrs at room temperature. Then, absorbance at 490 nm and 650 nm (reference wavelength) in each well was measured using the safile II. (Tecan). The percentage of proliferation was got from the formula: % Proliferation=100×(G3 value of sample well-Go value)/(G3 value of DMSO control-Go value). The GI50 values were further calculated as the compounds concentration required for 50% Proliferation in best-fit curves using Genedata Screener® software."}}}
{"smiles": "Cc1cc(Nc2ncnc3cccc(OC4CCNC(C(F)F)C4)c23)ccc1Oc1ccn2ccnc2c1", "note": "(racemic) [Compound 15, (±)-(5-(((2S,4S)-2-(difluoromethyl)piperidin-4-yl)oxy)-N-(4-(imidazo[1,2-a]pyridin-7-yloxy)-3-methylphenyl)quinazolin-4-amine]", "values": [{"measurement": "IC50", "setting": "WT EGFR", "value": "> 10000", "unit": "nM"}, {"measurement": "IC50", "setting": "WT HER2", "value": 2.55, "unit": "nM"}]}
{"smiles": "[2H]C([2H])([2H])Oc1ccc2ncnc(Nc3ccc(Oc4ccn5ncnc5c4)c(C)c3)c2c1OC1CCN(C([2H])([2H])[2H])CC1(F)F", "note": "(racemic) [Compound 26, (±)-N-(4-([1,2,4]triazolo[1,5-a]pyridin-7-yloxy)-3-methylphenyl)-5-((3,3-difluoro-1-(methyl-d3)piperidin-4-yl)oxy)-6-(methoxy-d3)quinazolin-4-amine]", "values": [{"measurement": "IC50", "setting": "WT EGFR", "value": "> 10000", "unit": "nM"}, {"measurement": "IC50", "setting": "WT HER2", "value": 5.84, "unit": "nM"}, {"measurement": "GI50", "setting": "BT474 cells", "value": 14.1, "unit": "nM"}]}
{"smiles": "COc1ccc2ncnc(Nc3ccc(Oc4ccn5ncnc5c4)c(C)c3)c2c1OC1CCN(C)CC1F", "note": "(single isomer, unassigned) [Compound 3, N-(4-([1,2,4]triazolo[1,5-a]pyridin-7-yloxy)-3-methylphenyl)-5-((3-fluoro-1-methylpiperidin-4-yl)oxy)-6-methoxyquinazolin-4-amine]", "values": [{"measurement": "IC50", "setting": "WT EGFR", "value": "> 3000", "unit": "nM"}, {"measurement": "IC50", "setting": "WT HER2", "value": 26, "unit": "nM"}, {"measurement": "GI50", "setting": "BT474 cells", "value": "44.7 ± 4.2", "unit": "nM"}]}
{"smiles": "COc1ccc2ncnc(Nc3ccc(Oc4ccn5ncnc5c4)c(C)c3)c2c1OC1CN(C)CCC1(F)F", "note": "(single isomer, unassigned) [Compound 5, N-(4-([1,2,4]triazolo[1,5-a]pyridin-7-yloxy)-3-methylphenyl)-5-((4,4-difluoro-1-methylpiperidin-3-yl)oxy)-6-methoxyquinazolin-4-amine]", "values": [{"measurement": "IC50", "setting": "WT EGFR", "value": "> 3000", "unit": "nM"}, {"measurement": "IC50", "setting": "WT HER2", "value": 6.83, "unit": "nM"}, {"measurement": "GI50", "setting": "BT474 cells", "value": "15.1 ± 8.19", "unit": "nM"}]}
{"smiles": "Cc1cc(Nc2ncnc3cccc(OC4CCN(C)CC4(F)F)c23)ccc1Oc1ccc2c(c1)ncn2C", "note": "(single isomer, unassigned) [Compound 7, 5-((3,3-difluoro-1-methylpiperidin-4-yl)oxy)-N-(3-methyl-4-((1-methyl-1H-benzo[d]imidazol-5-yl)oxy)phenyl)quinazolin-4-amine]", "values": [{"measurement": "IC50", "setting": "WT EGFR", "value": "> 3000", "unit": "nM"}, {"measurement": "IC50", "setting": "WT HER2", "value": 5.57, "unit": "nM"}, {"measurement": "GI50", "setting": "BT474 cells", "value": "8.36 ± 0.15", "unit": "nM"}]}
{"smiles": "COc1cc(OC2CCN(C)CC2(F)F)c2c(Nc3ccc(Oc4ccn5ccnc5c4)c(C)c3)ncnc2c1", "note": "(single isomer, unassigned) [Compound 8, 5-((3,3-difluoro-1-methylpiperidin-4-yl)oxy)-N-(4-(imidazo[1,2-a]pyridin-7-yloxy)-3-methylphenyl)-7-methoxyquinazolin-4-amine]", "values": [{"measurement": "IC50", "setting": "WT EGFR", "value": 1800, "unit": "nM"}, {"measurement": "IC50", "setting": "WT HER2", "value": 6.92, "unit": "nM"}, {"measurement": "GI50", "setting": "BT474 cells", "value": "7.47 ± 2.99", "unit": "nM"}]}
{"smiles": "Cc1cc(Nc2ncnc3cccc(OC4CCN(C)CC4(F)F)c23)ccc1Oc1ccc2ccnn2c1", "note": "(single isomer, unassigned) [Compound 9, 5-((3,3-difluoro-1-methylpiperidin-4-yl)oxy)-N-(3-methyl-4-(pyrazolo[1,5-a]pyridin-6-yloxy)phenyl)quinazolin-4-amine]", "values": [{"measurement": "IC50", "setting": "WT EGFR", "value": 1030, "unit": "nM"}, {"measurement": "IC50", "setting": "WT HER2", "value": 16.2, "unit": "nM"}, {"measurement": "GI50", "setting": "BT474 cells", "value": "27.3 ± 14.5", "unit": "nM"}]}
{"smiles": "Cc1cc(Nc2ncnc3cc(N)cc(OC4CCN(C)CC4(F)F)c23)ccc1Oc1ccn2ncnc2c1", "note": "(single isomer, unassigned) [Compound 10, N^4-(4-([1,2,4]triazolo[1,5-a]pyridin-7-yloxy)-3-methylphenyl)-5-((3,3-difluoro-1-methylpiperidin-4-yl)oxy)quinazoline-4,7-diamine]", "values": [{"measurement": "IC50", "setting": "WT EGFR", "value": "> 3000", "unit": "nM"}, {"measurement": "IC50", "setting": "WT HER2", "value": 7.86, "unit": "nM"}, {"measurement": "GI50", "setting": "BT474 cells", "value": "19 ± 2.46", "unit": "nM"}]}
{"smiles": "Cc1cc(Nc2ncnc3cccc(OC4CCN(C)CC4F)c23)ccc1Oc1ccn2ccnc2c1", "note": "(single isomer, unassigned) [Compound 11]", "values": [{"measurement": "GI50", "setting": "BT474 cells", "value": "24.6 ± 4.85", "unit": "nM"}]}
{"smiles": "CCN1CCC(Oc2cccc3ncnc(Nc4ccc(Oc5ccn6ncnc6c5)c(C)c4)c23)C(F)(F)C1", "note": "(single isomer, unassigned) [Compound 12]", "values": [{"measurement": "IC50", "setting": "WT EGFR", "value": "> 3000", "unit": "nM"}, {"measurement": "IC50", "setting": "WT HER2", "value": 7.56, "unit": "nM"}, {"measurement": "GI50", "setting": "BT474 cells", "value": 9.02, "unit": "nM"}]}
{"smiles": "Cc1cc(Nc2ncnc3cc(OC4CCOC4)cc(OC4CCN(C)CC4(F)F)c23)ccc1Oc1ccn2ncnc2c1", "note": "(single isomer, unassigned) [Compound 18, N-(4-([1,2,4]triazolo[1,5-a]pyridin-7-yloxy)-3-methylphenyl)-5-((3,3-difluoro-1-methylpiperidin-4-yl)oxy)-7-((tetrahydrofuran-3-yl)oxy)quinazolin-4-amine]", "values": [{"measurement": "IC50", "setting": "WT EGFR", "value": 515, "unit": "nM"}, {"measurement": "IC50", "setting": "WT HER2", "value": 12.6, "unit": "nM"}, {"measurement": "GI50", "setting": "BT474 cells", "value": "8.58 ± 3.55", "unit": "nM"}]}
{"smiles": "Cc1cc(Nc2ncnc3cccc(OC4CCN(C)CCC4(F)F)c23)ccc1Oc1ccn2ccnc2c1", "note": "(single isomer, unassigned) [Compound 21, 5-((5,5-difluoro-1-methylazepan-4-yl)oxy)-N-(4-(imidazo[1,2-a]pyridin-7-yloxy)-3-methylphenyl)quinazolin-4-amine]", "values": [{"measurement": "IC50", "setting": "WT HER2", "value": "61.3 ± 11.2", "unit": "nM"}, {"measurement": "GI50", "setting": "BT474 cells", "value": "15.9 ± 6.57", "unit": "nM"}]}
{"smiles": "COc1cc(OC2CCN(C)CC2(F)F)c2c(Nc3ccc(Oc4cc5ncnn5cc4F)c(C)c3)ncnc2c1", "note": "(single isomer, unassigned) [Compound 22, 5-((3,3-difluoro-1-methylpiperidin-4-yl)oxy)-N-(4-((6-fluoro-[1,2,4]triazolo[1,5-a]pyridin-7-yl)oxy)-3-methylphenyl)-7-methoxyquinazolin-4-amine]", "values": [{"measurement": "IC50", "setting": "WT EGFR", "value": "2920 ± 2320", "unit": "nM"}, {"measurement": "IC50", "setting": "WT HER2", "value": "11.6 ± 10.4", "unit": "nM"}, {"measurement": "GI50", "setting": "BT474 cells", "value": "18.6 ± 6.51", "unit": "nM"}]}
{"smiles": "COc1ccc2ncnc(Nc3ccc(Oc4cc5ncnn5cc4F)c(C)c3)c2c1OC1CCN(C)CC1(F)F", "note": "(single isomer, unassigned) [Compound 23, 5-((3,3-difluoro-1-methylpiperidin-4-yl)oxy)-N-(4-((6-fluoro-[1,2,4]triazolo[1,5-a]pyridin-7-yl)oxy)-3-methylphenyl)-6-methoxyquinazolin-4-amine]", "values": [{"measurement": "IC50", "setting": "WT EGFR", "value": "> 10000", "unit": "nM"}, {"measurement": "IC50", "setting": "WT HER2", "value": 6.17, "unit": "nM"}, {"measurement": "GI50", "setting": "BT474 cells", "value": 11.7, "unit": "nM"}]}
{"smiles": "Cc1cc(Nc2ncnc3cccc(O[C@H]4C[C@H]5CC[C@@H](C4)N5CC(F)F)c23)ccc1Oc1ccn2ncnc2c1", "note": "[Compound 2, N-(4-([1,2,4]triazolo[1,5-a]pyridin-7-yloxy)-3-methylphenyl)-5-(((1R,3r,5S)-8-(2,2-difluoroethyl)-8-azabicyclo[3.2.1]octan-3-yl)oxy)quinazolin-4-amine]", "values": [{"measurement": "IC50", "setting": "WT HER2", "value": 6.17, "unit": "nM"}, {"measurement": "GI50", "setting": "BT474 cells", "value": "19 ± 1.4", "unit": "nM"}]}
{"smiles": "COc1ccc2ncnc(Nc3ccc(Oc4ccn5ncnc5c4)c(C)c3)c2c1OC[C@H]1CC(F)(F)CCN1C", "note": "[Compound 4, (R)-N-(4-([1,2,4]triazolo[1,5-a]pyridin-7-yloxy)-3-methylphenyl)-5-((4,4-difluoro-1-methylpiperidin-2-yl)methoxy)-6-methoxyquinazolin-4-amine]", "values": [{"measurement": "IC50", "setting": "WT EGFR", "value": "> 3000", "unit": "nM"}, {"measurement": "IC50", "setting": "WT HER2", "value": 7.96, "unit": "nM"}, {"measurement": "GI50", "setting": "BT474 cells", "value": "4.33 ± 0.63", "unit": "nM"}]}
{"smiles": "Cc1cc(Nc2ncnc3cccc(OC45CCN(CC4)CC5)c23)ccc1Oc1ccn2ccnc2c1", "note": "[Compound 13, N-(4-(imidazo[1,2-a]pyridin-7-yloxy)-3-methylphenyl)-5-(quinuclidin-4-yloxy)quinazolin-4-amine]", "values": [{"measurement": "IC50", "setting": "WT EGFR", "value": "> 3000", "unit": "nM"}, {"measurement": "IC50", "setting": "WT HER2", "value": 21.8, "unit": "nM"}, {"measurement": "GI50", "setting": "BT474 cells", "value": "49.8 ± 6.87", "unit": "nM"}]}
{"smiles": "CS(=O)(=O)CCNCc1ccc(-c2ccc3ncnc(Nc4ccc(OCc5cccc(F)c5)c(Cl)c4)c3c2)o1", "note": "[Lapatinib, reference compound]", "values": [{"measurement": "GI50", "setting": "BT474 cells", "value": "12.1 ± 2.78", "unit": "nM"}]}
{"smiles": "Cc1cc(Nc2ncnc3ccc(NC4=NC(C)(C)CO4)cc23)ccc1Oc1ccn2ncnc2c1", "note": "[ONT380, reference compound]", "values": [{"measurement": "IC50", "setting": "WT EGFR", "value": "> 3000", "unit": "nM"}, {"measurement": "IC50", "setting": "WT HER2", "value": 2, "unit": "nM"}, {"measurement": "GI50", "setting": "BT474 cells", "value": "10.8 ± 4.13", "unit": "nM"}]}
